Test results taken from patent US11530244B2, “Cyclic polypeptides for PCSK9 inhibition” (priority 2018, dated 2022).
Starred links: 1 amine or outer side, 2 acyl side, 3 side chain; linkers in the order of their positions; H or OH if unused. Positions of bridges follow the written chain, without caps; N, C: chain ends. Non-standard residues stand in square brackets, D forms with d. Residues, ends and D or L forms follow the SMILES beside them. Groups on a side chain read outwards from the residue. *: point of attachment. Ala(benzothiazol-2-yl) = N[C@@H](Cc1nc2ccccc2s1)C(=O)O; Pro(trans-4-Ph) = O=C(O)[C@@H]1C[C@@H](c2ccccc2)CN1; NMeTrp(1-Me) = CN[C@@H](Cc1cn(C)c2ccccc12)C(=O)O; Pro(4R-Bn) = O=C(O)[C@@H]1C[C@@H](Cc2ccccc2)CN1; Trp(5-F) = N[C@@H](Cc1c[nH]c2ccc(F)cc12)C(=O)O; X3 = O=C(CCSCc1cc(F)cc(CSCCN[*:1])c1)[*:2]; mXylylene(5-F) = Fc1cc(C[*:1])cc(C[*:2])c1; NMeW = CN[C@@H](Cc1c[nH]c2ccccc12)C(=O)O; Phe(4-CN) = N#Cc1ccc(C[C@H](N)C(=O)O)cc1; X4 = O=C(CCSCc1cccc(CSCCN[*:1])c1)[*:2]; Phe(4-Me) = Cc1ccc(C[C@H](N)C(=O)O)cc1; γGlu = O=C(O)[C@H](CCC(=O)[*:2])N[*:1]; mXylylene = c1cc(C[*:1])cc(C[*:2])c1; NMeY = CN[C@@H](Cc1ccc(O)cc1)C(=O)O; Palmitoyl = CCCCCCCCCCCCCCCC(=O)*; NMeD = CN[C@@H](CC(=O)O)C(=O)O; αMeP = C[C@@]1(C(=O)O)CCCN1; Dab = NCC[C@H](N)C(=O)O; Mpa = O=C(O)CCS; Sar = CNCC(=O)O

Target: human PCSK9 / human LDLR EGFa domain interaction (Homo sapiens (Human), UniProt Q8NBP7)
Sequence (Q8NBP7 153-692): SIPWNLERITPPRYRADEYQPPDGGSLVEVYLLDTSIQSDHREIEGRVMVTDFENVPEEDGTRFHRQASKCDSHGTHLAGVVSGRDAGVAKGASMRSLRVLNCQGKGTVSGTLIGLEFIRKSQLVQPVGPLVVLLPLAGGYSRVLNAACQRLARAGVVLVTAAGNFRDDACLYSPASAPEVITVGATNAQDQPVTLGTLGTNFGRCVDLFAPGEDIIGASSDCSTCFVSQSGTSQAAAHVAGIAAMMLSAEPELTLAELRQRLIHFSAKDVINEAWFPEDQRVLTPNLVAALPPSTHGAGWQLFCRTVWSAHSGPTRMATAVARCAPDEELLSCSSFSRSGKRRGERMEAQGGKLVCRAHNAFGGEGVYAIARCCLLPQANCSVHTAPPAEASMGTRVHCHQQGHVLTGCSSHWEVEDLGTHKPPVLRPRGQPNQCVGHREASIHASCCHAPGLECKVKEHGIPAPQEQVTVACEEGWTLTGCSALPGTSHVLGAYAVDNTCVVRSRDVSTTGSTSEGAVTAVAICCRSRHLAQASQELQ
Sequence (Q8NBP7 31-152 partner): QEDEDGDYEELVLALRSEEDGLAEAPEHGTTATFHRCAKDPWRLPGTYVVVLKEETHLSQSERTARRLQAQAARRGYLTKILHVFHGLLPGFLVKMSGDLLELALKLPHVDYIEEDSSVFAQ
Assay: TR-FRET assay of inhibition of the PCSK9-LDLR protein-protein interaction
Format: binding
Settings: TR-FRET, 20 nM human PCSK9, 20 nM human LDLR EGFa domain, 2 hours room temperature; read-out: IC50
Method: A time-resolved fluorescence resonance energy (TR-FRET) assay was used to measure inhibition of the PCSK9-LDLR protein-protein interaction. Briefly, 20 nM avitag-biotinylated human PCSK9 was incubated with 20 nM his-tagged human LDLR EGFa domain in the presence of 5 nM LANCE Ulight Streptavidin (Perkin Elmer) and 5 nM europium-Anti-6×His (Perkin Elmer) for 2 hours covered at room temperature in buffer containing 50 mM HEPES, 150 mM NaCl, 5 mM CaCl2), 0.01% BSA and 0.01% Surfactant P20. Compounds were tested in dose-response and concentrations giving half-maximal inhibition calculated using a 4-parameter fit equation.

Structure (SMILES) | IC50 [µM]
C[C@@H]1NC(=O)CCSCc2cccc(c2)CSC[C@@H](C(N)=O)NC(=O)[C@@H]2CCCN2C(=O)[C@H](Cc2ccc(O)cc2)N(C)C(=O)[C@H](Cc2c[nH]cn2)NC(=O)[C@H](CC(=O)O)N(C)C(=O)[C@H](Cc2cn(C)c3ccccc23)N(C)C(=O)[C@H](Cc2c[nH]c3ccccc23)N(C)C(=O)CN(C)C1=O [Compound 259] ([Mpa]A[Sar][NMeW][NMeTrp(1-Me)][NMeD]H[NMeY]PC-NH2; linker 1-10 via mXylylene) | 1 to 12.1
NCCCC[C@@H]1NC(=O)CCSCc2cccc(c2)CSC[C@@H](C(N)=O)NC(=O)[C@@H]2CCCN2C(=O)[C@H](Cc2nc3ccccc3s2)NC(=O)[C@H](Cc2c[nH]cn2)NC(=O)[C@H](CC(=O)O)NC(=O)[C@H](Cc2c[nH]c3ccc(F)cc23)NC(=O)[C@H](Cc2c[nH]c3ccc(F)cc23)NC(=O)CNC1=O [Compound 266] ([Mpa]KG[Trp(5-F)][Trp(5-F)]DH[Ala(benzothiazol-2-yl)]PC-NH2; linker 1-10 via mXylylene) | 21 to 50
C[C@H]1NC(=O)[C@H](CCCCN)NC(=O)CCSCc2cc(F)cc(c2)CSCCNC(=O)[C@]2(C)CCCN2C(=O)[C@H](Cc2ccc(O)cc2)NC(=O)[C@H](Cc2cnc[nH]2)NC(=O)[C@H](CC(=O)O)NC(=O)[C@H](Cc2c[nH]c3ccc(F)cc23)NC(=O)[C@H](Cc2c[nH]c3ccc(F)cc23)NC1=O [Compound 289] (cyclo(DHY[αMeP][X3]K[dA][Trp(5-F)][Trp(5-F)])) | 21 to 50
Cc1ccc(C[C@@H]2NC(=O)[C@H](Cc3c[nH]cn3)NC(=O)[C@H](CC(=O)O)NC(=O)[C@H](Cc3c[nH]c4ccc(F)cc34)NC(=O)[C@H](Cc3c[nH]c4ccc(F)cc34)NC(=O)[C@@H](C)NC(=O)[C@H](CCCCN)NC(=O)CCSCc3cccc(c3)CSCCNC(=O)[C@]3(C)CCCN3C2=O)cc1 [Compound 299] (cyclo(DH[Phe(4-Me)][αMeP][X4]K[dA][Trp(5-F)][Trp(5-F)])) | 0.1 to 1
C[C@H]1NC(=O)[C@H](CCCCN)NC(=O)CCSCc2cccc(c2)CSCCNC(=O)[C@]2(C)CCCN2C(=O)[C@H](Cc2ccc(C#N)cc2)NC(=O)[C@H](Cc2c[nH]cn2)NC(=O)[C@H](CC(=O)O)NC(=O)[C@H](Cc2c[nH]c3ccc(F)cc23)NC(=O)[C@H](Cc2c[nH]c3ccc(F)cc23)NC1=O [Compound 300] (cyclo(DH[Phe(4-CN)][αMeP][X4]K[dA][Trp(5-F)][Trp(5-F)])) | 0.1 to 1

Next, values leading:

IC50 [µM] | Structure (SMILES)
21 to 50 | CCCCCCCCCCCCCCCC(=O)N[C@@H](CCC(=O)N[C@@H](CCC(=O)NCCCC[C@@H]1NC(=O)CCSCc2cccc(c2)CSC[C@@H](C(N)=O)NC(=O)[C@]2(C)CCCN2C(=O)[C@H](Cc2ccc(O)cc2)NC(=O)[C@H](Cc2c[nH]cn2)NC(=O)[C@H](CC(=O)O)NC(=O)[C@H](Cc2c[nH]c3ccc(F)cc23)NC(=O)[C@H](Cc2c[nH]c3ccc(F)cc23)NC(=O)CNC1=O)C(=O)O)C(=O)O [Compound 283] ([Mpa]K([γGlu-γGlu-Palmitoyl])G[Trp(5-F)][Trp(5-F)]DHY[αMeP]C-NH2; linker 1-10 via mXylylene)
21 to 50 | CCCCCCCCCCCCCCCC(=O)N[C@@H](CCC(=O)N[C@@H](CCC(=O)NCC[C@H](NC(=O)[C@@H]1CSCc2cccc(c2)CSCCC(=O)N[C@@H](CCCCN)C(=O)NCC(=O)N[C@@H](Cc2c[nH]c3ccc(F)cc23)C(=O)N[C@@H](Cc2c[nH]c3ccc(F)cc23)C(=O)N[C@@H](CC(=O)O)C(=O)N[C@@H](Cc2c[nH]cn2)C(=O)N[C@@H](Cc2ccc(O)cc2)C(=O)N2CCC[C@@]2(C)C(=O)N1)C(N)=O)C(=O)O)C(=O)O [Compound 284] ([Mpa]KG[Trp(5-F)][Trp(5-F)]DHY[αMeP]C[Dab]([γGlu-γGlu-Palmitoyl])-NH2; linker 1-10 via mXylylene)
21 to 50 | C[C@@]12CCCN1C(=O)[C@H](Cc1ccc(O)cc1)NC(=O)[C@H](Cc1cnc[nH]1)NC(=O)[C@H](CC(=O)O)NC(=O)[C@H](Cc1c[nH]c3ccc(F)cc13)NC(=O)[C@H](Cc1c[nH]c3ccc(F)cc13)NC(=O)CNC(=O)[C@H](CCCCN)NC(=O)CCSCc1cc(F)cc(c1)CSC[C@@H](C(N)=O)NC2=O [Compound 287] ([Mpa]KG[Trp(5-F)][Trp(5-F)]DHY[αMeP]C-NH2; linker 1-10 via mXylylene(5-F))
0.0001 to 0.1 | NCCCC[C@@H]1NC(=O)CCSCc2cccc(c2)CSC[C@@H](C(N)=O)NC(=O)[C@@H]2C[C@@H](c3ccccc3)CN2C(=O)[C@H](Cc2ccc(O)cc2)NC(=O)[C@H](Cc2c[nH]cn2)NC(=O)[C@H](CC(=O)O)NC(=O)[C@H](Cc2c[nH]c3ccc(F)cc23)NC(=O)[C@H](Cc2c[nH]c3ccc(F)cc23)NC(=O)CNC1=O [Compound 293] ([Mpa]KG[Trp(5-F)][Trp(5-F)]DHY[Pro(trans-4-Ph)]C-NH2; linker 1-10 via mXylylene)
0.1 to 1 | NCCCC[C@@H]1NC(=O)CCSCc2cccc(c2)CSC[C@@H](C(N)=O)NC(=O)[C@@H]2C[C@@H](Cc3ccccc3)CN2C(=O)[C@H](Cc2ccc(O)cc2)NC(=O)[C@H](Cc2c[nH]cn2)NC(=O)[C@H](CC(=O)O)NC(=O)[C@H](Cc2c[nH]c3ccc(F)cc23)NC(=O)[C@H](Cc2c[nH]c3ccc(F)cc23)NC(=O)CNC1=O [Compound 294] ([Mpa]KG[Trp(5-F)][Trp(5-F)]DHY[Pro(4R-Bn)]C-NH2; linker 1-10 via mXylylene)
